Measurements reported in patent US8815921B2, “Active substance combination based on trifluorobutinyl compounds and exhibiting nematicidal and insecticidal properties” (priority 2003, dated 2014).
Several values for one entry are separate records, joined by “and”; a condition that tells them apart may be missing. Identical values can stand only once.

What was measured:
Format in all cases: in vivo
[1] = tested on: caterpillars of the army worm (Spodoptera frugiperda); experiment: Spodoptera frugiperda Test
Protocol: (§1) To produce a suitable preparation of active compound, 1 part by weight of active compound is mixed with the stated amounts of solvent and emulsifier, and the concentrate is diluted with emulsifier containing water to the desired concentration.
(§2) Cabbage leaves (Brassica oleracea) are treated by being dipped into the preparation of active compound of the desired concentration and are populated with caterpillars of the army worm (Spodoptera frugiperda) while the leaves are still moist. After the desired period of time, the kill in percent is determined. 100% means that all caterpillars have been killed; 0% means that none of the caterpillars has been killed. The kill rates determined are inserted into Colby's formula (see sheet 34).

[2] = tested on: caterpillars of the diamondback moth (Plutella xylostella, sensitive strain); experiment: Plutella Test, sensitive strain; details: for Kill rate [%] after 6 days: 20 ppm
Protocol: as §1
as §2, with “diamondback moth (Plutella xylostella, sensitive strain)” for “army worm (Spodoptera frugiperda)”

[3] = tested on: green peach aphid (Myzus persicae); experiment: Myzus Test
Protocol: as §1
Cabbage leaves (Brassica oleracea), which are heavily infested by the green peach aphid (Myzus persicae) are treated by being dipped into the preparation of active compound of the desired concentration. After the desired period of time, the kill in % is determined. 100% means that all aphids have been killed; 0% means that none of the aphids has been killed. The kill rates determined are inserted into Colby's formula (see sheet 1).

[4] = tested on: larvae of the mustard beetle (Phaedon cochleariae); experiment: Phaedon-Larvae Test; details: cabbage leaf dip
Protocol: as §1
as §2, with “with larvae” for “with caterpillars”, “the mustard beetle (Phaedon cochleariae)” for “the army worm (Spodoptera frugiperda)”, “all beetle larvae” for “all caterpillars”, “the beetle larvae” for “the caterpillars”

Molecule: Cc1c(F)c(F)c(COC(=O)[C@@H]2[C@H](/C=C(\Cl)C(F)(F)F)C2(C)C)c(F)c1F (racemic) [tefluthrin]
- Kill rate [%] after 3 days ([1]; 0.8 ppm): 40%
- Kill rate [%] after 3 days ([2]; 0.16 ppm): 20%
- Kill rate [%] after 1 day ([3]; 4 ppm): 0%
- Kill rate [%] after 3 days ([4]; 4 ppm): 75%

Molecule: O=S(=O)(CCC(F)=C(F)F)c1ncc(Cl)s1 [(IC)]
- Kill rate [%] after 3 days ([1]; 500 ppm, cabbage leaf dip): 0%
- Kill rate [%] after 6 days ([1]; 500 ppm): 20%
- Kill rate [%] after 3 days ([2]; 500 ppm, cabbage leaf dip): 0% and 5%
- Kill rate [%] after 1 day ([3]; 100 ppm, cabbage leaf dip): 0%
- Kill rate [%] after 6 days ([3]; 100 ppm): 0%
- Kill rate [%] after 3 days ([4]; 500 ppm): 0%

Molecule: CCOC(=O)OC1=C(c2cc(C)ccc2C)C(=O)NC12CCC(OC)CC2 (stereo not drawn) [(IIA), carboxylic acid, 3-(2,5-dimethylphenyl)-8-methoxy-2-oxo-1-azaspiro[4.5]dec-3-en-4-yl ethyl ester, (9Cl)]
- Kill rate [%] after 6 days ([1]; 100 ppm): 30%
- Kill rate [%] after 3 days ([2]; 4 ppm): 95%
- Kill rate [%] after 6 days ([3]; 4 ppm): 55%

Molecule: CNC(=O)O/N=C/C(C)(C)SC [aldicarb]
- Kill rate [%] after 6 days [2]: 0%
- Kill rate [%] after 3 days ([4]; 20 ppm): 35%

Molecule: CN/C(=N\[N+](=O)[O-])NCc1cnc(Cl)s1 [clothianidin]
- Kill rate [%] after 3 days ([1]; 4 ppm): 85%
- Kill rate [%] after 3 days ([4]; 4 ppm): 15%

Molecule: N#Cc1nn(-c2c(Cl)cc(C(F)(F)F)cc2Cl)c(N)c1[S+]([O-])C(F)(F)F (stereo not drawn) [fipronil]
- Kill rate [%] after 6 days ([1]; 0.8 ppm): 0%

Molecule: O=[N+]([O-])NC1=NCCN1Cc1ccc(Cl)nc1 [imidacloprid]
- Kill rate [%] after 6 days [2]: 5%
- Kill rate [%] after 3 days ([4]; 20 ppm): 45%

Molecule: CCOP(=S)(Oc1cnc(C(C)(C)C)nc1)OC(C)C (stereo not drawn) [tebupirimfos]
- Kill rate [%] after 6 days ([1]; 0.8 ppm): 0%
- Kill rate [%] after 3 days ([2]; 0.8 ppm): 0%
- Kill rate [%] after 6 days ([3]; 20 ppm): 35%

Molecule: spinosad
- Kill rate [%] after 3 days ([1]; 0.16 ppm): 60%
